Test [1] concerns the target T1, KRas^G12D (Homo sapiens, UniProt P01116, G12D).
T1 construct: […]; biotin (biotinylated); purchased Accelegan Inc
Nature of the test: KRas binding assay (TR-FRET displacement of Cy5 labelled tracer). On the technique in general: In TR-FRET formats the signal depends on donor and acceptor labels being close together.
Experimental: (§2) The ability of a compound to bind to KRas was measured using a TR-FRET displacement assay. […] After a 60-minute incubation at room temperature, the reaction was measured using a BMG LABTECH CLARIO star Plus via TR-FRET. […] The POC values were fit to a 4-parameter IC50 equation and the IC50 value reported.

Test [2] relates to ASPC1 cells, pERK. Nature of the test: Inhibition of KRas phosphorylation of ERK (Cisbio HTRF Advanced pERK assay). Type of test: cell-based. Conditions: Homo sapiens, ASPC1, 3 h, AsPC-1 cells, read-out: Inhibition (HTRF IC50 nM) of KRas-mediated Phosphorylation of ERK, AsPC-1. The method, boiled down:
(§1)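 Compound effect on ERK phosphorylation is measured after 3 h exposure of cells, seeded the previous day in RPMI with 10% FBS, to ten 3-fold dilutions starting at 10 uM. Lysates are probed by HTRF for pERK, with trametinib at 0.2 uM defining the minimum signal.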

Test [3] has as its system PSN1 cells, pERK. The description is as above. Type of test: cell-based. The following applies: Homo sapiens, PSN1, 3 h, read-out: Inhibition (HTRF IC50 nM) of KRas-mediated Phosphorylation of ERK, PSN1. The method, boiled down: as §1
Test [4] has as its system H727 cells, pERK. Described as above. Type of test: cell-based. Conditions: Homo sapiens, NCI-H727, 3 h, read-out: Inhibition (HTRF IC50 nM) of KRas-mediated Phosphorylation of ERK, H727. The method in brief:
as §1

The test system of test [5] is MKN1 cells, pERK. The test is described as above. Type of test: cell-based. The following applies: Homo sapiens, MKN-1, 3 h, read-out: Inhibition (HTRF IC50 nM) of KRas-mediated Phosphorylation of ERK, MKN1. The method, boiled down: as §1
For test [6], the system named is H460 cells, pERK. Described as above. Type of test: cell-based. The following applies: Homo sapiens, NCI-H460, 3 hrs, read-out: Inhibition (HTRF IC50 nM) of KRas-mediated Phosphorylation of ERK, H460. The method in brief: as §1
Test [7] addresses T2, KRas^G12V (Homo sapiens, UniProt P01116, G12V).
T2 construct: […]; biotin (biotinylated); purchased Accelegan Inc
Briefly: KRas binding assay (TR-FRET displacement of Cy5 labelled tracer).
Experimental: as §2

Test [8] deals with T3, KRas^G12R (Homo sapiens, UniProt P01116, G12R).
T3 construct: […]; biotin (biotinylated); purchased Accelegan Inc
T3 sequence (P01116 1-169 isoform P01116-2 G12R): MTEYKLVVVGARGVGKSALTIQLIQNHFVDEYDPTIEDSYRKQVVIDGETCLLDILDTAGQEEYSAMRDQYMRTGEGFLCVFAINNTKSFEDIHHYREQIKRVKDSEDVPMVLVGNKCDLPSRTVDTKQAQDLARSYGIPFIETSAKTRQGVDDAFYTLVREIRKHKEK
The test is described as above.
Experimental: as §2

Test [9] concerns HCT116 cells, pERK. Briefly: Inhibition of KRas phosphorylation of ERK (Cisbio HTRF Advanced pERK assay). Type of test: cell-based. Conditions: Homo sapiens, HCT-116, 3 hrs, read-out: Inhibition (HTRF IC50 nM) of KRas-mediated Phosphorylation of ERK, HCT116. The method, boiled down:
as §1

Usually IC50 stands for the midpoint of a concentration-inhibition curve.

T2 sequence (P01116 1-169 isoform P01116-2 G12V): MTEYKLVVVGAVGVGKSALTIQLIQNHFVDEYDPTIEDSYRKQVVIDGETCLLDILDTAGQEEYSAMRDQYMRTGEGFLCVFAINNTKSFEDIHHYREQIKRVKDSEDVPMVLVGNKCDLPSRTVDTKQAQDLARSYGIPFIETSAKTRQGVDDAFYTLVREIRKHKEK
T1 sequence (P01116 1-169 isoform P01116-2 G12D): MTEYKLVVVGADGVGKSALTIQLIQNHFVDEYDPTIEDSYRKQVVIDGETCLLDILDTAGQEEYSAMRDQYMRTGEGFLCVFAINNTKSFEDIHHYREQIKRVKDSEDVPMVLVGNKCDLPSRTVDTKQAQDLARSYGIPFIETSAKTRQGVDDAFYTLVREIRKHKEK

For `CCc1c(F)ccc2cc(O)cc(N3CCc4c(nc(OC[C@@]56CCCN5C[C@H](F)C6)nc4N4CCCc5ncccc5C4)C3)c12` [Example 180, 4-(4-(8,9-dihydro-5H-pyrido[3,2-c]azepin-6(7H)-yl)-2-(((2R,7aS)-2-fluorohexahydro-1H-pyrrolizin-7a-yl)methoxy)-5,6-dihydropyrido[3,4-d]pyrimidin-7(8H)-yl)-5-ethyl-6-fluoronaphthalen-2-ol], the IC50 in test [1] is 4 nM; in test [2], 383 nM; in [3] it was no less than 10000 nM; in test [4], 600 nM; in test [5], 462 nM; in [6] it was 1560 nM. Further, the IC50 in test [7] stood at 8 nM; in test [8] it was 6 nM.

Take `CCc1c(F)ccc2cc(O)cc(N3CCc4c(nc(OC[C@@]56CCCN5C[C@H](F)C6)nc4N4CCCC5(CNC(=O)C5)C4)C3)c12` (stereo partly drawn) [Example 197, 7-(7-(8-ethyl-7-fluoro-3-hydroxynaphthalen-1-yl)-2-(((2R,7aS)-2-fluorohexahydro-1H-pyrrolizin-7a-yl)methoxy)-5,6,7,8-tetrahydropyrido[3,4-d]pyrimidin-4-yl)-2,7-diazaspiro[4.5]decan-3-one]: the concentration for half-maximal inhibition (IC50) in test [1] was no more than 2 nM; in test [2], 136 nM; in test [3], 1690 nM; in test [4], 313 nM; in [5], 12 nM; in test [6], 285 nM. The IC50 was 499 nM in [9], no more than 2 nM in test [7] and no more than 2 nM in test [8].

Turning to `O=C1CC2(CCCN(c3nc(OC[C@@]45CCCN4C[C@H](F)C5)nc4c3CCN(c3cc(O)cc5ccc(F)c(Br)c35)C4)C2)N1` (stereo partly drawn) [Example 223, 6-(7-(8-bromo-7-fluoro-3-hydroxynaphthalen-1-yl)-2-(((2R,7aS)-2-fluorohexahydro-1H-pyrrolizin-7a-yl)methoxy)-5,6,7,8-tetrahydropyrido[3,4-d]pyrimidin-4-yl)-1,6-diazaspiro[3.5]nonan-2-one], the IC50 in test [1] is no more than 2 nM; in test [2] it was 320 nM; in test [3] it was 607 nM; in test [4], 234 nM; in test [5] it was 19 nM; in test [6], 325 nM. The IC50 in test [7] and in test [8] was no more than 2 nM each time.

On to `Nc1cc2n(n1)CCCN(c1nc(OC[C@@]34CCCN3C[C@H](F)C4)nc3c1CCN(c1cc(O)cc4ccc(F)c(Cl)c14)C3)C2` [Example 75, 4-(4-(2-amino-7,8-dihydro-4H-pyrazolo[1,5-a][1,4]diazepin-5(6H)-yl)-2-(((2R,7aS)-2-fluorohexahydro-1H-pyrrolizin-7a-yl)methoxy)-5,6-dihydropyrido[3,4-d]pyrimidin-7(8H)-yl)-5-chloro-6-fluoronaphthalen-2-ol], for which the IC50 in test [1] is no more than 2 nM; in test [2] it was 128 nM; in test [3], no less than 10000 nM; in [4] it was 242 nM; in test [5] it was 128 nM; in [9] it was 2160 nM. For the same molecule, the IC50 in test [7] is 3 nM; in [8], no more than 2 nM.

For `O=C1CC2(CCCN(c3nc(OC[C@@]45CCCN4C[C@H](F)C5)nc4c3CCN(c3cc(O)cc5ccc(F)c(Cl)c35)C4)C2)N1` (stereo partly drawn) [Example 70, 6-(7-(8-chloro-7-fluoro-3-hydroxynaphthalen-1-yl)-2-(((2R,7aS)-2-fluorohexahydro-1H-pyrrolizin-7a-yl)methoxy)-5,6,7,8-tetrahydropyrido[3,4-d]pyrimidin-4-yl)-1,6-diazaspiro[3.5]nonan-2-one], the IC50 in test [1] was no more than 2 nM; in [2], 705 nM; in test [3], 750 nM; in test [4] it was 471 nM; in test [5] it was 40 nM; in test [9], 1490 nM. Further, the IC50 in [7] and in test [8] was no more than 2 nM in each case.

For the molecule `CC1(O)COCCN(c2nc(OC[C@@]34CCCN3C[C@H](F)C4)nc3c2CCN(c2cc(O)cc4ccc(F)c(Br)c24)C3)C1` (stereo partly drawn) [Example 219, 4-(7-(8-bromo-7-fluoro-3-hydroxynaphthalen-1-yl)-2-(((2R,7aS)-2-fluorohexahydro-1H-pyrrolizin-7a-yl)methoxy)-5,6,7,8-tetrahydropyrido[3,4-d]pyrimidin-4-yl)-6-methyl-1,4-oxazepan-6-ol], the IC50 in [1] was found to be 3 nM; in test [2] it was 448 nM; in test [3], 6120 nM; in test [4], 1580 nM; in [5], 97 nM; in [6], 1020 nM. The values for the IC50 in [7] and in test [8] were 3 nM and 4 nM, respectively.

As to `C[C@@]1(O)CCCN(c2nc(OC[C@@]34CCCN3C[C@H](F)C4)nc3c2CCN(c2cc(O)cc4ccc(F)c(Br)c24)C3)C1` [Example 222, (R)-1-(7-(8-bromo-7-fluoro-3-hydroxynaphthalen-1-yl)-2-(((2R,7aS)-2-fluorotetrahydro-1H-pyrrolizin-7a(5H)-yl)methoxy)-5,6,7,8-tetrahydropyrido[3,4-d]pyrimidin-4-yl)-3-methylpiperidin-3-ol], the IC50 in test [1] is no more than 2 nM; in [2], 179 nM; in test [3] it was 2820 nM; in test [4], 530 nM; in [5], 37 nM; in [6], 352 nM. Further, the IC50 in [9] is 672 nM; in test [7], no more than 2 nM; in test [8] it was no more than 2 nM.

In the case of `C[C@@]1(O)CCCN(c2nc(OC[C@@]34CCCN3C[C@H](F)C4)nc3c2CCN(c2cc(O)cc4ccc(F)c(Cl)c24)C3)C1` [Example 68, (R)-1-(7-(8-chloro-7-fluoro-3-hydroxynaphthalen-1-yl)-2-(((2R,7aS)-2-fluorohexahydro-1H-pyrrolizin-7a-yl)methoxy)-5,6,7,8-tetrahydropyrido[3,4-d]pyrimidin-4-yl)-3-methylpiperidin-3-ol], the 50% inhibitory concentration (IC50) was no more than 2 nM in test [1]; 112 nM in test [2]; 2260 nM in [3]; 423 nM in test [4]; 71 nM in [5]; 421 nM in test [6]. Besides, the results for the IC50 in test [9], in test [7] and in [8] were 1170 nM, no more than 2 nM and 3 nM, respectively.

With `Nc1cc2n(n1)CCCN(c1nc(OC[C@@]34CCCN3C[C@H](F)C4)nc3c1CCN(c1cc(O)cc4ccc(F)c(Br)c14)C3)C2` [Example 212, 4-(4-(2-amino-7,8-dihydro-4H-pyrazolo[1,5-a][1,4]diazepin-5(6H)-yl)-2-(((2R,7aS)-2-fluorohexahydro-1H-pyrrolizin-7a-yl)methoxy)-5,6-dihydropyrido[3,4-d]pyrimidin-7(8H)-yl)-5-bromo-6-fluoronaphthalen-2-ol], the IC50 in [1] is no more than 2 nM; in test [2], 111 nM; in [3], no less than 10000 nM; in test [4], 268 nM; in test [5], 61 nM; in test [6] it was 545 nM. For the same molecule, the values for the IC50 in test [9], in test [7] and in [8] were 1110 nM, no more than 2 nM and no more than 2 nM, respectively.

(Values after US12421253B2 (Mirati Therapeutics, Inc., priority 2020, dated 2025).)
